Some test systems named below: COLO 205 colon; HCC-2998 colon; HCT-15 colon; HT29 colon; KM12 colon; MALME-3M melanoma; OVCAR-3 ovarian; RPMI-8226 leukemia; SF-295 CNS; SR leukemia.
What all share (experiment): NCI anticancer screen, dose series, 48 h

SMILES strings stand for the structures.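 Interpolation was linear, between the two tested concentrations surrounding the appropriate level; five concentrations were tested over 48 hours in 96-well plates. GI50: concentration for 50% inhibition of growth. TGI: total growth inhibition.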

The values that follow come from PubChem BioAssay (NCI).

For `O=C1CCCC2C3CC(CN12)C1CCCCN1C3` (stereo unspecified), the TGI in the assay on COLO 205 colon, in the assay on HCC-2998 colon, in the assay on HCT-15 colon, in the assay with HT29 colon, in the assay on KM12 colon and in the assay with MALME-3M melanoma was greater than 100 µM in each case. Moreover, the TGI in the assay on OVCAR-3 ovarian, with RPMI-8226 leukemia, in the assay on SF-295 CNS and in the assay on SR leukemia was greater than 100 µM throughout.
On to `C=CCSSCC=C`, for which the TGI in the assay on COLO 205 colon, with HCC-2998 colon, in the assay with HCT-15 colon, in the assay with HT29 colon, in the assay on KM12 colon and in the assay on MALME-3M melanoma was greater than 100 µM throughout. Also, the TGI is greater than 100 µM in the assay with OVCAR-3 ovarian, greater than 80.4 µM in the assay on RPMI-8226 leukemia, greater than 100 µM in the assay on SF-295 CNS and 50.2 µM with SR leukemia.
Turning to `COc1c(OC/C=C(\C)CCC=C(C)C)ccc2ccc(=O)oc12`, the TGI in the assay on COLO 205 colon, in the assay with HCC-2998 colon, in the assay with HCT-15 colon, in the assay on HT29 colon, in the assay with KM12 colon and in the assay with OVCAR-3 ovarian was greater than 100 µM each time. Moreover, the TGI with RPMI-8226 leukemia, in the assay with SF-295 CNS and in the assay with SR leukemia was greater than 100 µM each time.
Regarding `O=C1OCc2cc3cc4c(cc3c(-c3ccc5c(c3)OCO5)c21)OCO4` (tested in a mixture with another compound), the TGI with COLO 205 colon was 75.1 µM; in the assay with HCC-2998 colon, greater than 100 µM; in the assay with HCT-15 colon it was greater than 100 µM; with HT29 colon, greater than 100 µM; with KM12 colon, greater than 100 µM; in the assay with MALME-3M melanoma it was greater than 100 µM. The TGI is 21.4 µM with OVCAR-3 ovarian, greater than 100 µM in the assay with RPMI-8226 leukemia, 31.4 µM with SF-295 CNS and greater than 100 µM with SR leukemia.
In the case of `CN1CC(CNC(=O)OCc2ccccc2)CC2c3cccc4c3c(cn4C)CC21` (stereo unspecified), the GI50 is 1.37 µM with COLO 205 colon; 1.67 µM in the assay with HCC-2998 colon; 1.69 µM in the assay on HCT-15 colon; 1.4 µM with HT29 colon; 2.14 µM with KM12 colon; 1.57 µM with MALME-3M melanoma. Also, the GI50 with OVCAR-3 ovarian was 2.63 µM; with RPMI-8226 leukemia, 2.14 µM; in the assay with SF-295 CNS, 2.09 µM. Also, the TGI in the assay on COLO 205 colon was determined as 2.75 µM; with HCC-2998 colon, 3.19 µM; in the assay with HCT-15 colon, 3.52 µM; in the assay with HT29 colon, 3.27 µM; in the assay on KM12 colon, 4.65 µM; in the assay on MALME-3M melanoma, 3.14 µM. For the same compound, the TGI in the assay with OVCAR-3 ovarian was determined as 7.79 µM; in the assay on RPMI-8226 leukemia it was 5.36 µM; with SF-295 CNS it was 4.76 µM.
Regarding `c1ccc(C[N+]23CN4CN(CN(C4)C2)C3)cc1`, the TGI is 35.8 µM in the assay on COLO 205 colon; 39.9 µM in the assay with HCC-2998 colon; greater than 100 µM in the assay with HCT-15 colon; greater than 100 µM in the assay on HT29 colon; greater than 100 µM with KM12 colon; greater than 100 µM with MALME-3M melanoma. For the same compound, the TGI in the assay on OVCAR-3 ovarian is greater than 100 µM; in the assay on RPMI-8226 leukemia it was 57.2 µM; in the assay with SF-295 CNS it was greater than 100 µM.
Take `O=C1OC2CC=CC1C2` (stereo unspecified): the TGI in the assay on COLO 205 colon, with HCC-2998 colon, in the assay on HCT-15 colon, in the assay with HT29 colon, in the assay with KM12 colon and in the assay with MALME-3M melanoma was greater than 100 µM throughout. In addition, the TGI in the assay on OVCAR-3 ovarian, with RPMI-8226 leukemia and with SF-295 CNS was greater than 100 µM in each case.
As for `COc1cc(/C=C/C(=O)CC(=O)/C=C/c2ccc(O)c(OC)c2)ccc1O`, the TGI with COLO 205 colon was determined as 28.9 µM; with HCC-2998 colon, 8.08 µM; in the assay with HCT-15 colon it was 18.5 µM; with HT29 colon it was 32.4 µM; in the assay with KM12 colon it was 19.7 µM; in the assay on MALME-3M melanoma, 27.4 µM. Further, the TGI with OVCAR-3 ovarian was 24.7 µM; with RPMI-8226 leukemia, 6.28 µM; with SF-295 CNS it was 20.7 µM; in the assay with SR leukemia, 14.6 µM.
In the case of `O=C(/C=C/c1ccccc1)N1CCCCC1`, the TGI in the assay on COLO 205 colon, in the assay with HCC-2998 colon, in the assay on HCT-15 colon, with HT29 colon, with KM12 colon and in the assay with OVCAR-3 ovarian was greater than 100 µM in each case. Besides, the TGI with RPMI-8226 leukemia, in the assay with SF-295 CNS and in the assay with SR leukemia was greater than 100 µM in each case.
As for `Br/C(=N\Nc1nn[nH]n1)c1ccncc1`, the TGI in the assay with COLO 205 colon, in the assay on HCT-15 colon, with HT29 colon, in the assay with KM12 colon, in the assay on MALME-3M melanoma and in the assay with OVCAR-3 ovarian was greater than 100 µM in each case. Also, the TGI in the assay on RPMI-8226 leukemia, in the assay on SF-295 CNS and with SR leukemia was greater than 100 µM each time.
In the case of `C=C1C(=O)OC2CC1CCC1(C)OC1CCC(C)=CCCC2(C)O` (stereo unspecified), the TGI with COLO 205 colon was 5.95 µM; in the assay with HCC-2998 colon, 15.2 µM; with HCT-15 colon, 7.79 µM; in the assay on HT29 colon it was 10.7 µM; in the assay with KM12 colon, 12.9 µM; with MALME-3M melanoma, 12.2 µM. The TGI with OVCAR-3 ovarian is 9.3 µM; with RPMI-8226 leukemia it was 7.18 µM; with SF-295 CNS, 33.8 µM.
With `O=C(COc1ccc(Cl)c(Cl)c1)N(Cc1ccccc1)Cc1ccc[n+](Cc2ccc(Cl)cc2S(=O)(=O)F)c1`, the TGI in the assay on COLO 205 colon was greater than 100 µM; in the assay with HCT-15 colon it was greater than 100 µM; in the assay on HT29 colon, greater than 100 µM; in the assay with KM12 colon, 56.6 µM; in the assay on MALME-3M melanoma, 54.2 µM; in the assay on OVCAR-3 ovarian it was greater than 100 µM. Besides, the TGI in the assay with RPMI-8226 leukemia is 28.4 µM; with SF-295 CNS it was greater than 100 µM; in the assay with SR leukemia, 52.4 µM.
On to `Cc1cc(C)nc(SCCc2cccc[n+]2C)n1`, for which the TGI in the assay with COLO 205 colon, in the assay with HCC-2998 colon, in the assay with HCT-15 colon, with HT29 colon, in the assay with KM12 colon and in the assay with MALME-3M melanoma was greater than 100 µM each time. Moreover, the TGI with OVCAR-3 ovarian, with RPMI-8226 leukemia and with SF-295 CNS was greater than 100 µM in each case.
As to `CCCC(=O)O.CCCC(=O)O.CCCC(=O)O.CCCC(=O)O.[Rh].[Rh]`, the GI50 was 0.0186 µM with COLO 205 colon; 0.155 µM in the assay with HCT-15 colon; 0.0334 µM with HT29 colon; 0.172 µM in the assay on KM12 colon; 0.0309 µM with MALME-3M melanoma; 0.0243 µM with RPMI-8226 leukemia. In the assay on SR leukemia, the GI50 was 0.0586 µM. Also, the TGI was determined as 0.0406 µM in the assay with COLO 205 colon; 0.762 µM in the assay on HCT-15 colon; 0.126 µM in the assay on HT29 colon; 0.366 µM with KM12 colon; 0.102 µM with MALME-3M melanoma; 0.112 µM in the assay on RPMI-8226 leukemia. Further, the TGI in the assay with SR leukemia stood at 1.06 µM.
Turning to `CC(=O)NNC(=O)C1CCCCN1` (stereo unspecified), the TGI with COLO 205 colon, in the assay on HCT-15 colon, in the assay on HT29 colon, in the assay on KM12 colon, in the assay with MALME-3M melanoma and in the assay on OVCAR-3 ovarian was greater than 100 µM throughout. The TGI in the assay on RPMI-8226 leukemia, in the assay with SF-295 CNS and with SR leukemia was greater than 100 µM throughout.
As for `O=C(Oc1ccc(Cl)cc1[N+](=O)[O-])c1ccccc1`, the TGI in the assay on COLO 205 colon, in the assay with HCC-2998 colon, in the assay on HCT-15 colon, in the assay with HT29 colon, in the assay on KM12 colon and in the assay on MALME-3M melanoma was greater than 100 µM throughout. The TGI in the assay on OVCAR-3 ovarian, in the assay with RPMI-8226 leukemia, in the assay with SF-295 CNS and with SR leukemia was greater than 100 µM in each case.
As for `SC1CCCN(Cc2ccccc2)C1` (stereo unspecified), the TGI in the assay on COLO 205 colon was 33.7 µM; with HCC-2998 colon, 31.4 µM; with HCT-15 colon, greater than 100 µM; in the assay with HT29 colon, 45.8 µM; with KM12 colon it was greater than 100 µM; in the assay with OVCAR-3 ovarian, greater than 100 µM. The TGI with RPMI-8226 leukemia was 46.6 µM; in the assay on SF-295 CNS, greater than 100 µM; in the assay on SR leukemia, 71.5 µM.
Regarding `COc1ccc(OC)c(CC(C)N)c1` (stereo unspecified), the TGI in the assay on COLO 205 colon, in the assay on HCC-2998 colon, in the assay with HCT-15 colon, with HT29 colon, with KM12 colon and in the assay on MALME-3M melanoma was greater than 100 µM in each case. For the same compound, the TGI with OVCAR-3 ovarian, in the assay with RPMI-8226 leukemia and in the assay with SF-295 CNS was greater than 100 µM throughout.
